As usually defined, the pEC50 is −log10 of the EC50, conventionally taken in molar units.

SMILES strings stand for the structures. pEC50: −log10 of the molar value. Where two headings read alike, the source gives them in different places.

Holding throughout (assay type): cell-based
One assay has as its target hGcgR (Homo sapiens, UniProt P47871). Description: Functional cAMP activation in the presence of 0.1% casein (no HSA). As to conditions: read-out: Relative cAMP EC50, hGcgR.
Assay [1] has as its target T1, hGLP-1R (Homo sapiens, UniProt P43220). The assay is described as above. The settings on record: read-out: Relative cAMP EC50, hGLP-1R.
In another assay the target is T2, hGIPR (Homo sapiens, UniProt P48546).
T2 sequence (P48546 22-466): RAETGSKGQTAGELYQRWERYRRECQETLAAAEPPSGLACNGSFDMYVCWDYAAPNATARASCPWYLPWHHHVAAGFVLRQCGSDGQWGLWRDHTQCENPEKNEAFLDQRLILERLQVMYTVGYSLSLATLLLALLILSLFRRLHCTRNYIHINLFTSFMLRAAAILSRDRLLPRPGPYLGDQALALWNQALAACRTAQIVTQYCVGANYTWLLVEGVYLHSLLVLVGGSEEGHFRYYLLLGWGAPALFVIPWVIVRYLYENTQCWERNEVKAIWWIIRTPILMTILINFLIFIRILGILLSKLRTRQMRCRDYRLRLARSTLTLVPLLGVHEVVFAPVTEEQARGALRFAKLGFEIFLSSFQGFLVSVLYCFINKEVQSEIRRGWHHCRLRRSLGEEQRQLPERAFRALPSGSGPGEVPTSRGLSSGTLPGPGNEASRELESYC
The assay is described as above. As to conditions: read-out: Relative cAMP EC50, hGIPR.

Assay [2] concerns the target T1, hGLP-1R. The assay is described as follows: Functional cAMP activity in the presence of 1% HSA. As to conditions: read-out: cAMP Rel EC50, hGLP-1R.
The next assay has as its target human GcgR (Homo sapiens, UniProt P47871). Description: Functional cAMP activity in the presence of 1% HSA. The settings on record: read-out: cAMP Rel EC50, hGcgR.
Setting [3] is: in the presence of 0.1% casein (no HSA), geometric mean.
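For Relative cAMP EC50, hGIPR in this document: intracellular cAMP rise after 30 min at 37 °C read by HTRF against a standard curve, scaled between buffer alone (0%) and top control ligand concentration (100%), four-parameter fit.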
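For Relative cAMP EC50, hGLP-1R in this document: intracellular cAMP rise after 30 min at 37 °C read by HTRF, normalized between buffer only (0%) and maximal control ligand (100%), four-parameter variable-slope fit.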
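For Relative cAMP EC50, hGcgR in this document: intracellular cAMP rise after 30 min at 37 °C, read by HTRF against a cAMP standard curve, scaled from buffer only (0%) to maximal control ligand response (100%).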

Chain of hGcgR (P47871 26-477): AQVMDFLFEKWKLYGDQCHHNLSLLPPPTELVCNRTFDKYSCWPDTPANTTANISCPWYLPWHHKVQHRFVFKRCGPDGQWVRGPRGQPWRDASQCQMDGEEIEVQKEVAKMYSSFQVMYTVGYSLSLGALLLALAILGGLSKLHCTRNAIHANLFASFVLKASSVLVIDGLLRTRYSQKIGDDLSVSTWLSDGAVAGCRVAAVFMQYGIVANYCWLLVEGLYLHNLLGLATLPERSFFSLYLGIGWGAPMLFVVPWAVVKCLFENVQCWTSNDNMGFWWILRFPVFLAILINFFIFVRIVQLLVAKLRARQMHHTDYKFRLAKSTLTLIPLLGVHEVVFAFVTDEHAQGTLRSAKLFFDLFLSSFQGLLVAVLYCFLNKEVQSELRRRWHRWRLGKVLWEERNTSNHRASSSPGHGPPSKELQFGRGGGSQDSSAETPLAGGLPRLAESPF
Chain of human GcgR (P47871 26-477): as above
T1 sequence (P43220 24-463): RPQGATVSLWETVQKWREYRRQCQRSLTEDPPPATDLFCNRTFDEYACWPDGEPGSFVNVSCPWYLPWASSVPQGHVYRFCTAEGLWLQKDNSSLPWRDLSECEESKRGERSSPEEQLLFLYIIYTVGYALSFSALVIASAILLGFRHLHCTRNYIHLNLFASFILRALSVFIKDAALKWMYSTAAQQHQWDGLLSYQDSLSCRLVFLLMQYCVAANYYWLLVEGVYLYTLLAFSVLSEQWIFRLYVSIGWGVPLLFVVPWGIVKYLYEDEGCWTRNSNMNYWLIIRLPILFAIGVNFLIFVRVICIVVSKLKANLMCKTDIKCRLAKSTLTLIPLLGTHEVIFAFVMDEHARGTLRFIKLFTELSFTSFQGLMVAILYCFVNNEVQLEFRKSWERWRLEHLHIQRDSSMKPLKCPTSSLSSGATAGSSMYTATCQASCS

In the case of `CC[C@H](C)[C@H](NC(=O)[C@H](Cc1ccccc1)NC(=O)[C@H](C)NC(=O)C(C)(C)NC(=O)[C@H](CCC(N)=O)NC(=O)[C@H](C)NC(=O)[C@H](CCCCNC(=O)COCCOCCNC(=O)CC[C@H](NC(=O)CCCCCCCCCCCCCCCCC(=O)O)C(=O)O)NC(=O)[C@H](CCCCN)NC(=O)[C@H](CC(=O)O)NC(=O)[C@H](CC(C)C)NC(=O)[C@](C)(CC(C)C)NC(=O)[C@H](CCCN)NC(=O)[C@H](CO)NC(=O)[C@H](Cc1ccccc1)NC(=O)[C@H](CC(=O)O)NC(=O)[C@H](CO)NC(=O)[C@@H](NC(=O)[C@H](Cc1ccccc1)NC(=O)[C@@H](NC(=O)CNC(=O)[C@H](CCC(N)=O)NC(=O)C(C)(C)NC(=O)[C@@H](N)Cc1ccc(O)cc1)[C@@H](C)O)[C@@H](C)O)C(=O)N[C@@H](CCC(=O)O)C(=O)N[C@@H](Cc1ccc(O)cc1)C(=O)N[C@@H](CC(C)C)C(=O)N[C@@H](CC(C)C)C(=O)N[C@@H](CCC(=O)O)C(=O)NC(C)(C)C(=O)NCC(=O)N[C@@H](CCC(=O)O)C(=O)N[C@@H](CO)C(=O)N[C@@H](CO)C(=O)NCC(=O)N[C@@H](C)C(=O)N1CCC[C@H]1C(=O)N1CCC[C@H]1C(=O)N1CCC[C@H]1C(=O)N[C@@H](CO)C(=O)NCC(=O)N[C@@H](CCC(=O)O)C(N)=O` [Example 246], the pEC50 is 8.62 at hGcgR (setting [3]); 8.41 at hGLP-1R [1] (setting [3]); 9.97 at hGIPR (setting [3]); 6.07 on hGLP-1R [2]; 6.19 on human GcgR.

For `CC[C@H](C)[C@H](NC(=O)[C@H](Cc1ccccc1)NC(=O)[C@H](C)NC(=O)C(C)(C)NC(=O)[C@H](CCC(N)=O)NC(=O)[C@H](C)NC(=O)[C@H](CCCCNC(=O)COCCOCCNC(=O)CC[C@H](NC(=O)CCCCCCCCCCCCCCCCC(=O)O)C(=O)O)NC(=O)[C@H](CCCCN)NC(=O)[C@H](CC(=O)O)NC(=O)[C@H](CC(C)C)NC(=O)[C@](C)(CC(C)C)NC(=O)[C@H](CCCN)NC(=O)[C@H](CO)NC(=O)[C@H](Cc1ccccc1)NC(=O)[C@H](CC(=O)O)NC(=O)[C@H](CO)NC(=O)[C@@H](NC(=O)[C@H](Cc1ccccc1)NC(=O)[C@@H](NC(=O)CNC(=O)[C@H](CCC(N)=O)NC(=O)C(C)(C)NC(=O)[C@@H](N)Cc1ccc(O)cc1)[C@@H](C)O)[C@@H](C)O)C(=O)N[C@@H](CCC(=O)O)C(=O)N[C@@H](Cc1c[nH]c2ccccc12)C(=O)N[C@@H](CC(C)C)C(=O)N[C@@H](CC(C)C)C(=O)N[C@@H](CCC(=O)O)C(=O)NCC(=O)NCC(=O)N1CCC[C@H]1C(=O)N[C@@H](CO)C(=O)N[C@@H](CO)C(=O)NCC(=O)N[C@@H](C)C(=O)N1CCC[C@H]1C(=O)N1CCC[C@H]1C(=O)N1CCC[C@H]1C(=O)N[C@@H](Cc1ccncc1)C(=O)NCC(=O)N[C@@H](CO)C(N)=O` [Example 251], the pEC50 was 8.16 on hGcgR (setting [3]); 8.58 at hGLP-1R [1] (setting [3]); 9.82 on hGIPR (setting [3]); 6.52 on hGLP-1R [2]; 5.82 on human GcgR.

Consider `CC[C@H](C)[C@H](NC(=O)[C@H](Cc1ccccc1)NC(=O)[C@H](C)NC(=O)C(C)(C)NC(=O)[C@H](C)NC(=O)[C@H](C)NC(=O)[C@H](CCCCNC(=O)COCCOCCNC(=O)CC[C@H](NC(=O)CCCCCCCCCCCCCCCCC(=O)O)C(=O)O)NC(=O)[C@H](CCCCN)NC(=O)[C@H](CC(=O)O)NC(=O)[C@H](CC(C)C)NC(=O)[C@](C)(CC(C)C)NC(=O)[C@@H](NC(=O)[C@H](CO)NC(=O)[C@H](Cc1ccc(O)cc1)NC(=O)[C@H](CC(=O)O)NC(=O)[C@H](CO)NC(=O)[C@@H](NC(=O)[C@](C)(Cc1ccccc1F)NC(=O)[C@@H](NC(=O)CNC(=O)[C@H](CCC(N)=O)NC(=O)C(C)(C)NC(=O)[C@@H](N)Cc1c[nH]cn1)[C@@H](C)O)[C@@H](C)O)[C@@H](C)CC)C(=O)N[C@@H](CCC(=O)O)C(=O)N[C@@H](Cc1ccc(O)cc1)C(=O)N[C@@H](CC(C)C)C(=O)N[C@H](C(=O)N[C@@H](CCC(=O)O)C(=O)N[C@H](C(=O)NCC(=O)N1CCC[C@H]1C(=O)N[C@@H](CO)C(=O)N[C@@H](CO)C(=O)NCC(=O)N[C@@H](CCC(=O)O)C(=O)N1CCC[C@H]1C(=O)N1CCC[C@H]1C(=O)N1CCC[C@H]1C(=O)N[C@@H](CO)C(=O)N[C@@H](CCC(=O)O)C(=O)NCC(N)=O)[C@@H](C)O)[C@@H](C)CC` [Example 291], for which the negative logarithm of the EC50 (pEC50) on hGcgR (setting [3]) was 8.73; at hGLP-1R [1] (setting [3]), 9.66; at hGIPR (setting [3]), 9.59; at hGLP-1R [2] (HEK-293 clonal cells expressing hGLP-1R, in the presence of 1% HSA, geometric mean of relative EC50), 7.61; at human GcgR (HEK-293 clonal cells expressing hGcgR, in the presence of 1% HSA, geometric mean of relative EC50) it was 6.51.

For `CC[C@H](C)[C@H](NC(=O)[C@H](Cc1ccccc1)NC(=O)[C@H](CCCN)NC(=O)C(C)(C)NC(=O)[C@H](CCC(N)=O)NC(=O)[C@H](C)NC(=O)[C@H](CCCCNC(=O)COCCOCCNC(=O)CC[C@H](NC(=O)CCCCCCCCCCCCCCCCCCC(=O)O)C(=O)O)NC(=O)[C@H](CCCN)NC(=O)[C@H](CC(=O)O)NC(=O)[C@H](CC(C)C)NC(=O)[C@](C)(CC(C)C)NC(=O)[C@@H](NC(=O)[C@H](CO)NC(=O)[C@H](Cc1ccncc1)NC(=O)[C@H](CC(=O)O)NC(=O)[C@H](CO)NC(=O)[C@@H](NC(=O)[C@](C)(Cc1ccccc1F)NC(=O)[C@@H](NC(=O)CNC(=O)[C@H](CCC(N)=O)NC(=O)C(C)(C)NC(=O)[C@@H](N)Cc1ccc(O)cc1)[C@@H](C)O)[C@@H](C)O)[C@@H](C)CC)C(=O)N[C@H](CCC(=O)O)C(=O)N[C@@](C)(Cc1ccc(O)cc1)C(=O)N[C@@H](CC(C)C)C(=O)N[C@@H](CC(C)C)C(=O)N[C@@H](CCC(=O)O)C(=O)NCC(=O)NCC(=O)N1CCC[C@H]1C(=O)N[C@@H](CO)C(=O)N[C@@H](CO)C(=O)NCC(=O)N[C@@H](CCC(=O)O)C(=O)N1CCC[C@H]1C(=O)N1CCC[C@H]1C(=O)N1CCC[C@H]1C(=O)N[C@@H](CO)C(N)=O` [Example 365], the negative-log EC50 (pEC50) at hGcgR (setting [3]) is 8.37; on hGLP-1R [1] (setting [3]), 9.58; at hGIPR (setting [3]) it was 10.47; at hGLP-1R [2] it was 7.12; at human GcgR, 5.83.

`CC[C@H](C)[C@H](NC(=O)[C@H](Cc1ccccc1)NC(=O)[C@H](C)NC(=O)C(C)(C)NC(=O)[C@H](CCC(N)=O)NC(=O)[C@H](C)NC(=O)[C@H](CCCCNC(=O)CC[C@H](NC(=O)CC[C@H](NC(=O)CCCCCCCCCCCCCCCCC(=O)O)C(=O)O)C(=O)O)NC(=O)[C@H](CCCCN)NC(=O)[C@H](CC(=O)O)NC(=O)[C@H](CC(C)C)NC(=O)[C@H](CC(C)C)NC(=O)[C@@H](NC(=O)[C@H](CO)NC(=O)[C@H](Cc1ccc(O)cc1)NC(=O)[C@H](CC(=O)O)NC(=O)[C@H](CO)NC(=O)[C@@H](NC(=O)[C@](C)(Cc1ccccc1F)NC(=O)[C@@H](NC(=O)CNC(=O)[C@H](CCC(N)=O)NC(=O)C(C)(C)NC(=O)[C@@H](N)Cc1ccc(O)cc1)[C@@H](C)O)[C@@H](C)O)[C@@H](C)CC)C(=O)N[C@@H](CCC(=O)O)C(=O)N[C@@H](Cc1ccc(O)cc1)C(=O)N[C@@H](CC(C)C)C(=O)N[C@@H](CCC(=O)O)C(=O)N[C@@H](CCC(=O)O)C(=O)NCC(=O)NCC(=O)N1CCC[C@H]1C(=O)N[C@@H](CO)C(=O)N[C@@H](CO)C(=O)NCC(=O)N[C@@H](CCC(=O)O)C(=O)N1CCC[C@H]1C(=O)N1CCC[C@H]1C(=O)N1CCC[C@H]1C(=O)N[C@@H](CO)C(N)=O` [Example 432]: the negative logarithm of the EC50 (pEC50) was 8.80 at hGcgR; 9.37 at hGLP-1R [1]; 10.53 on hGIPR; 7.38 on hGLP-1R [2]; 6.42 on human GcgR.

For `CC[C@H](C)[C@H](NC(=O)[C@H](CC(C)C)NC(=O)[C@H](Cc1ccc(O)cc1)NC(=O)[C@H](CCC(=O)O)NC(=O)[C@@H](NC(=O)[C@H](Cc1ccccc1)NC(=O)[C@H](C)NC(=O)[C@](C)(Cc1ccncc1)NC(=O)[C@H](CCC(N)=O)NC(=O)[C@H](C)NC(=O)[C@H](CCCCNC(=O)COCCOCCNC(=O)CC[C@H](NC(=O)CCCCCCCCCCCCCCCCC(=O)O)C(=O)O)NC(=O)[C@H](CCCCN)NC(=O)[C@H](CC(=O)O)NC(=O)[C@H](CC(C)C)NC(=O)[C@](C)(CC(C)C)NC(=O)[C@H](CCC(N)=O)NC(=O)[C@H](CO)NC(=O)[C@H](Cc1ccncc1)NC(=O)[C@H](CC(=O)O)NC(=O)[C@H](CO)NC(=O)[C@@H](NC(=O)[C@H](Cc1ccccc1)NC(=O)[C@@H](NC(=O)CNC(=O)[C@H](CCC(N)=O)NC(=O)C(C)(C)NC(=O)[C@@H](N)Cc1ccc(O)cc1)[C@@H](C)O)[C@@H](C)O)[C@@H](C)CC)C(=O)N[C@@H](CCC(=O)O)C(=O)NCC(=O)NCC(=O)N[C@@H](CCC(=O)O)C(=O)N[C@@H](CO)C(=O)N[C@@H](CO)C(=O)NCC(=O)N[C@@H](C)C(=O)N1CCC[C@H]1C(=O)N1CCC[C@H]1C(=O)N1CCC[C@H]1C(=O)N[C@@H](CO)C(=O)NCC(=O)N[C@@H](CO)C(N)=O` [Example 793], the pEC50 is 8.42 at hGcgR (setting [3]); 8.50 at hGLP-1R [1] (setting [3]); 9.08 at hGIPR (setting [3]); 6.25 on hGLP-1R [2]; 5.78 on human GcgR.

(Values after US20240270821A1, “GIP/GLP1/GCG TRI-RECEPTOR AGONISTS AND USES THEREOF” (priority 2023, published 2024).)
